From BindingDB's records for patent US20230348426 (Bristol-Myers Squibb, 2023)

What was measured:
[1] = molecular target: T1, N-formyl peptide receptor 2 (Homo sapiens, UniProt P25090); assay: FPR2 and FPR1 Cyclic Adenosine Monophosphate (cAMP) Assays
T1 sequence (P25090 whole entry): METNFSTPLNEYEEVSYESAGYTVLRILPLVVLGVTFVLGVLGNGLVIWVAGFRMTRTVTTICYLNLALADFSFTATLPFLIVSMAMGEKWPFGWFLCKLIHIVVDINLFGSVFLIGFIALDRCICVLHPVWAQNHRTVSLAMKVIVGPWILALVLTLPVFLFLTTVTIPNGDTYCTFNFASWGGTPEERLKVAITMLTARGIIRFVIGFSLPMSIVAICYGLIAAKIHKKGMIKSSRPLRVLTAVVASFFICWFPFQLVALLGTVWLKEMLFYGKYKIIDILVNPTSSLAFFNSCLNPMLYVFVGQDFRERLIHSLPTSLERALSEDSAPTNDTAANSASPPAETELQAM
Description: (§1) A mixture of forskolin (5 M final for FPR2 or 10 M final for FPR1) and IBMX (200 M final) were added to 384-well Proxiplates (Perkin-Elmer) pre-dotted with test compounds in DMSO (1% final) at final concentrations in the range of 0.020 nM to 100 µM. Chinese Hamster Ovary cells (CHO) overexpressing human FPR1 or human FPR2 receptors were cultured in F-12 (Ham s) medium supplemented with 10% qualified FBS, 250 µg/ml zeocin and 300 µg/ml hygromycin (Life Technologies). Reactions were initiated by adding 2,000 human FPR2 cells per well or 4,000 human FPR1 cells per well in Dulbecco s PBS (with calcium and magnesium) (Life Technologies) supplemented with 0.1% BSA (Perkin-Elmer). The reaction mixtures were incubated for 30 min at room temperature. The level of intracellular cAMP was determined using the HTRF HiRange cAMP assay reagent kit (Cisbio) according to manufacturer s instruction. Solutions of cryptate conjugated anti-cAMP and d2 flurorophore-labelled cAMP were made in a supplied lysis buffer separately. Upon completion of the reaction, the cells were lysed with equal volume of the d2-cAMP solution and anti-cAMP solution. […] The potency and activity of a compound to inhibit cAMP production was then determined by fitting to a 4-parametric logistic equation from a plot of cAMP level versus compound concentrations.

[2] = molecular target: T2, fMet-Leu-Phe receptor (Homo sapiens, UniProt P21462); assay: as above
T2 sequence (P21462 whole entry): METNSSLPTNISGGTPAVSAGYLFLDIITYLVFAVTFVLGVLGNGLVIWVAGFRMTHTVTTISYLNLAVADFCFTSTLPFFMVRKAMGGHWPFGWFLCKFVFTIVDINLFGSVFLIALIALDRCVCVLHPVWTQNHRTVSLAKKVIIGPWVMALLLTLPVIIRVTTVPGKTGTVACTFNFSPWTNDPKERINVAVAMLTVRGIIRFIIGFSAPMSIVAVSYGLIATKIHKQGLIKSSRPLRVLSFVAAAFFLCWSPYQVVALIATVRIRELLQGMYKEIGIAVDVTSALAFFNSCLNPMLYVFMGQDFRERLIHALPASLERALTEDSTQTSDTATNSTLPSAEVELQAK
Description: as §1

EC50 [1] [µM] | EC50 [2] [µM] | SMILES
0.013 | 5.6 | COc1cc(F)c([C@@H]2CN(c3nc(N4CC(CO)OCC4=O)ccc3F)C(=O)[C@H]2NC(=O)c2ccc(OC(F)F)cc2)c(F)c1 (some centres not stated) [US20230348426, Example 331]
0.0086 | 0.062 | COc1cc(F)c([C@@H]2CN(c3nc(N4CCCS4(=O)=O)ccc3F)C(=O)[C@H]2NC(=O)c2ccc(OC(F)(F)F)cc2)c(F)c1 [US20230348426, Example 289]
0.0019 | 0.012 | COc1cc(F)c([C@@H]2CN(c3c(C)ccn(C4CCS(=O)(=O)CC4)c3=O)C(=O)[C@H]2NC(=O)c2ccc(Cl)cc2)c(F)c1 [US20230348426, Example 625]

Second part, the molecule before the results:

SMILES | EC50 [1] [µM] | EC50 [2] [µM]
COc1cc(F)c([C@@H]2CN(c3c(C)ccn(CC(O)C4CC4)c3=O)C(=O)[C@H]2NC(=O)c2ccc(Cl)cc2)c(F)c1 (some centres not stated) [US20230348426, Example 684] | 0.007 | 0.005
COc1cc(F)c([C@@H]2CN(c3c(C)ccn(C4CCN(C)C4)c3=O)C(=O)[C@H]2NC(=O)c2ccc(Cl)cc2)c(F)c1 (some centres not stated) [US20230348426, Example 510] | 0.0035 | 0.29
COc1cc(C2CCN(C)CC2)nc(N2C(=O)[C@@H](NC(=O)c3ccc(Cl)cc3)[C@H](c3c(F)cc(OC)cc3F)[C@H]2C)c1 [US20230348426, Example 558] | 0.0064 | 2
